According to ChEMBL document CHEMBL4330174, “Allosteric mGluR3 Modulators for the Treatment of Psychiatric Disorders” (ACS Med Chem Lett, 2019):

Each compound was assayed against Metabotropic glutamate receptor 3 (Homo sapiens, UniProt Q14832) (assay: Positive allosteric modulation of human mGluR3 expressed in HEK293 cells assessed as increase in glutamate-induced calcium mobilization preincubated for 10 mins followed by glutamate addition and measured for 3 mins by Fluo4-AM dye based FLIPR assay).
Chain of Metabotropic glutamate receptor 3 (Q14832 whole entry): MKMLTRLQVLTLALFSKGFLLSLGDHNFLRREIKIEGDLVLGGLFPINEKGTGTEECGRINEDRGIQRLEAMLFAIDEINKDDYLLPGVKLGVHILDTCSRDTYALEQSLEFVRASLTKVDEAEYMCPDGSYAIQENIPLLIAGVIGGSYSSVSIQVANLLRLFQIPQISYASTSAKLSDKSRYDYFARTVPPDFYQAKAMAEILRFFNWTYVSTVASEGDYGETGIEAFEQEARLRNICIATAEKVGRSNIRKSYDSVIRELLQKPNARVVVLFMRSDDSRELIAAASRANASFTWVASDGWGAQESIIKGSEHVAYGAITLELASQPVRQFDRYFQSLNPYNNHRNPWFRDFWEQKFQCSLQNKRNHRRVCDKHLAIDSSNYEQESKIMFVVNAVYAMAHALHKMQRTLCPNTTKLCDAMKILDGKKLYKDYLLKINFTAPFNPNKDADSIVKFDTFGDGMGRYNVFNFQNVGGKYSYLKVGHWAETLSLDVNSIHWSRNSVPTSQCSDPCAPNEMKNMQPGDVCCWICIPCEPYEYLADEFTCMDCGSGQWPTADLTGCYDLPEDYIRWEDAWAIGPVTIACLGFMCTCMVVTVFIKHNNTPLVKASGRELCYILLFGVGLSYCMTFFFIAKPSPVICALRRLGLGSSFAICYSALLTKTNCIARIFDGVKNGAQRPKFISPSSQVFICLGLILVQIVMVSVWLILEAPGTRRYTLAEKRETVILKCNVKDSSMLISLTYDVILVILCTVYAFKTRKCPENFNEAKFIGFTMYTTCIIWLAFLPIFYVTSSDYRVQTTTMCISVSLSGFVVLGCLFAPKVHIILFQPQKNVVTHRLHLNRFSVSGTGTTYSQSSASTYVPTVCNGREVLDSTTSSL
Format: functional, cell-based

EC50 [nM] | Structure (SMILES)
100 to 1000 | COCn1cc2c(n1)C(=O)N(C)Cc1ccc(-c3ccc(F)cn3)cc1-2
< 100 | COCn1cc2c(n1)C(=O)N(C)C1(CC1)c1ccc(-c3ccc(F)nc3)cc1-2
100 to 1000 | CCn1cc2c(n1)C(=O)N(C)Cc1ccc(-c3cccnc3C)cc1-2

Further lines, the compound ahead of its results:

Structure (SMILES) | EC50 [nM]
CN1C(=O)c2ncccc2-c2cc(-c3ccc(F)nc3)ccc2C12CC2 | < 100
COc1ccc2c(n1)C(=O)N(C)C1(CC1)c1ccc(-c3ccc(F)nc3)cc1-2 | < 100
CN1C(=O)c2cccn2-c2cc(-c3ccc(F)nc3)ccc2C12CCC2 | < 100
COc1ccc2c(n1)C(=O)N(C)Cc1ccc(-c3ccc(F)nc3)cc1-2 | < 100
CN1C(=O)c2ncccc2-c2cc(-c3ccc(F)cn3)ccc2C12CC2 | < 100
